Measurements from patent publication US7452388B2, “Compositions comprising dimeric or oligomeric ferrocenes” (Innospec Limited, priority 2000, dated 2008).
Read-outs that look alike come from different tables or passages of the source.

How the values were obtained:
[1] = Solubility testing in toluene at −30° C.
Excerpt: Solubility testing was undertaken using the estimate of Fe content from C/H/N analysis. […] This procedure assumes the products below to contain substantially only C, H and Fe. Masses of product(s) sufficient to provide the required concentration of iron as condensation products were weighed into screw-cap vials and made up to 10.00 g with toluene. The samples were capped, shaken or swirled until homogenous then sealed using Parafilm™. The vials were then kept in an ethylene glycol/water filled bath held at −30° C. and periodically inspected for the appearance of solids or separation of liquid phases. After at least one week solids were separated by rapid filtration and soluble products isolated by removal of solvent under vacuum. Following analysis of the solids, maximum and minimum solubilities were estimated from the mass balance.

[2] = Viscosity of 2.5 wt % iron solutions in toluene (Bohlin CVO rheometer); type: physicochemical; conditions: toluene solution at 2.5 wt % Fe
Method: Viscosities of 2.5 wt % iron solutions were determined using a Bohlin Instruments CVO rheometer using a 4° 40 mm cone and plate at shear rates of either 2 Pa or 0.5 Pa.

[3] = Fuel stability, in-house Test Method 1; conditions: additive 20 ppm iron
[4] = toluene, −30° C., at least one week

Row | Molecule | Solubility at −30° C., 2.5 wt % Fe (appearance) [1] | Solubility at −30° C., 5.0 wt % Fe (appearance) [1] | Viscosity at −30° C. (mPas) [2] | Solubility at −30° C., 2.5 wt % Fe (appearance) [1, 4] | also measured
1 | 1,1-diferrocenyl 2-ethylhexane [Compound 4] | Clear | Clear |  |  | 
2 | 1,1-diferrocenyl cyclohexane [Compound 11] |  |  | 4.8 mPas | Clear | Solubility of Fe as product ([1]; toluene, −30° C.): ~4.9 wt %; Solubility at −30° C., 5.0 wt % Fe (appearance) [1, 4]: Powder
3 | 1,1-diferrocenylpentane [Compound 7] | Clear | Clear | 5.4 mPas |  | 
4 | CC(C)C([c-]1cccc1)[c-]1cccc1.[Fe+2].[Fe+2].c1cc[cH-]c1.c1cc[cH-]c1 [Compound 5, 1,1-diferrocenyl-2-methyl propane] |  |  |  | Clear | 
5 | [Fe+2].[Fe+2].c1cc[cH-]c1.c1cc[cH-]c1.c1ccc(CC([c-]2cccc2)[c-]2cccc2)cc1 [Compound 9, 1,1-diferrocenyl phenyl methane] |  |  | 4.3 mPas | Clear | Solubility at −30° C., 5.0 wt % Fe (appearance) [1, 4]: Clear
6 | O=C1CCCC(=O)C1 [Compound 12, 1,3-Cyclohexanedione] | Clear | Crystals |  |  | Solubility of Fe as product [1]: 3.6 to 4.1 wt % by mass balance
7 | CC(=O)CCC(C)=O [Compound 15, Acetonyl acetone] | Powder | Powder |  |  | 
8 | Iron tris(2-ethylhexanoate) [Octanoate] |  |  |  |  | fuel stability (conclusion) [3]: markedly lower stability
